Several values for one entry are separate records, joined by “and”; a condition that tells them apart may be missing. Equal values may be shown once. Starred links: 1 amine or outer side, 2 acyl side, 3 side chain; linkers in the order of their positions; H or OH if unused. Positions of bridges follow the written chain, without caps; N, C: chain ends. Non-standard residues stand in square brackets, D forms with d. Residues, ends and D or L forms follow the SMILES beside them. TATA = O=C(CC[*:1])N1CN(C(=O)CC[*:2])CN(C(=O)CC[*:3])C1; Phe(4-F) = N[C@@H](Cc1ccc(F)cc1)C(=O)O; β3hR = N=C(N)NCCC[C@H](N)CC(=O)O
Experiments:
[1] = human; cited from earlier work
trypsin = molecular target: T1, trypsin (Homo sapiens, UniProt P07477); assay: Specificity profiling, residual protease activity; type: biochemical
T1 construct: purchased Molecular Innovations
Protocol: (§1) Protease inhibition assays
(§2) The inhibitory activity of peptides was determined by measuring the residual protease activity with a fluorogenic substrate. The assay was performed in buffer containing 10 mM Tris-Cl, pH […]
(§3) 1% (v/v) DMSO in a volume of 150 µl. […]
(§4) HFXIIAB) were used at final concentrations of 0.4 nM. The reaction was pipetted as follows: 50 µl of bicyclic peptide in assay buffer were added to 50 µl of FXIIa in assay buffer and incubated for 10 minutes at 25°C before 50 µl of 150 µM fluorogenic substrate in assay buffer were added to measure the residual protease activity with an Infinite M200Pro fluorescence plate reader (excitation at 368 nm, emission at 467 nm; Tecan) for a period of 30 minutes with a read every minute at 25°C. The Tecan software i-control (version 1.1) was used for data analysis. Stock solutions of 1 mM bicyclic peptide were prepared by either dissolving the unpurified cyclization reaction with water or by dissolving purified and lyophilized peptide in water. The bicyclic peptides were serially diluted two-fold using assay buffer. Sigmoidal curves were fitted to the data using the following dose response equation (1), wherein x = peptide concentration, y = % protease activity, and p = Hill slope. IC50 values were derived from the fitted curve.
(§5) The inhibition constants (Ki) were calculated according to the equation of Cheng and Prusoff, Ki = IC50/(1+([S]0/Km), wherein IC50 is the functional strength of the inhibitor, [S]0 is the total substrate concentration, and Km is the Michaelis-Menten constant. […]
(§6) For testing the specificity of the bicyclic peptides, the following final concentrations of human serine proteases were used: tPA (Molecular Innovations) 7.5 nM, uPA (Molecular Innovations) 1.5 nM, factor XIa (Innovative Research) 6 nM, plasma kallikrein (Innovative Research) 0.25 nM, thrombin (Molecular Innovations) 1 nM, plasmin (Molecular Innovations) 2.5 nM, trypsin (Molecular Innovations) 0.05 nM, factor VIIa (Haematologic Technologies) 50 nM, factor Xa […]
(§7) (Haematologic Technologies) 6 nM, and activated protein C (APC) 5 nM. Two-fold dilutions of the peptide were prepared that ranged from 0.04 to 40 µM. The following fluorogenic substrates were used at a final concentration of 50 µM: Z-Phe-Arg-AMC (Bachem) for plasma kallikrein; Boc-Phe-Ser-Arg-AMC (Bachem) for factor XIa; Z-Gly-Gly-Arg-AMC (Bachem) for tPA, uPA, thrombin, and trypsin; H-D-Val-Leu-Lys-AMC (Bachem) for plasmin; and D-Phe-Pro-Arg-ANSNH-C4H9 (Haematologic Technologies) for FVIIa and FXa. For APC, the chromogenic substrate pyroGlu-Pro-Arg-pNA (S2366) was used at a concentration of 400 µM. […]

plasma kallikrein = molecular target: T2, plasma kallikrein (Homo sapiens, UniProt P03952); assay: Specificity profiling, residual protease activity; type: biochemical
T2 construct: 1.5 nM, factor XIa (Innovative Research) 6 nM, plasma kallikrein (Innovative Research) 0.25; purchased Innovative Research
T2 sequence (P03952 391-638 limits assumed): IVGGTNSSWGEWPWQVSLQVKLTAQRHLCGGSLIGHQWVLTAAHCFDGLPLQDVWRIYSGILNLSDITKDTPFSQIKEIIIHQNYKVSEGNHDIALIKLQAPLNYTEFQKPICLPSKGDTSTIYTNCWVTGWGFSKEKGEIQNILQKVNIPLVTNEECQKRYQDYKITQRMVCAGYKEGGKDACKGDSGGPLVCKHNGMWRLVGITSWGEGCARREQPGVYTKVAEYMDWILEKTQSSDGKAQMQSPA
T2 sequence (P03952 20-390 limits assumed): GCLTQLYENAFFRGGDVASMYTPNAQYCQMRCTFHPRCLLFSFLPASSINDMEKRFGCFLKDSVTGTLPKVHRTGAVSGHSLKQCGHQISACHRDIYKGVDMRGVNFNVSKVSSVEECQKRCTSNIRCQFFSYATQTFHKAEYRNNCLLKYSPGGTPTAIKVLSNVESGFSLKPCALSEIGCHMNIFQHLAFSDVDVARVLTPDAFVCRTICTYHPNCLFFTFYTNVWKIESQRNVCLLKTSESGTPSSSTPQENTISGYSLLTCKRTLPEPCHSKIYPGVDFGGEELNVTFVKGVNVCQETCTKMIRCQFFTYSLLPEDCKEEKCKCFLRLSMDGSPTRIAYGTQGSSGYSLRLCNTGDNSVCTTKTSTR
Protocol: as §1, §2, §3, §4, §5, §6, §7

factor Xa = molecular target: T3, factor Xa (Homo sapiens, UniProt P00742); assay: Specificity profiling, residual protease activity; type: biochemical
T3 construct: (Molecular Innovations) 0.05 nM, factor VIIa (Haematologic Technologies) 50 nM, factor Xa; purchased Haematologic Technologies
T3 sequence (P00742 235-488 limits assumed): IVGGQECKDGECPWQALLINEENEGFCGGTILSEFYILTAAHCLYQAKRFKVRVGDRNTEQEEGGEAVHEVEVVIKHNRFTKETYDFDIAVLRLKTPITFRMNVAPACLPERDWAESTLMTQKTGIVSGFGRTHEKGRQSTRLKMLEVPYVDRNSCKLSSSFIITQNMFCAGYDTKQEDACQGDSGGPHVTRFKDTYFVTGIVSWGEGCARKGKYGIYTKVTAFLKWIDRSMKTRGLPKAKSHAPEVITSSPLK
T3 sequence (P00742 41-179 limits assumed): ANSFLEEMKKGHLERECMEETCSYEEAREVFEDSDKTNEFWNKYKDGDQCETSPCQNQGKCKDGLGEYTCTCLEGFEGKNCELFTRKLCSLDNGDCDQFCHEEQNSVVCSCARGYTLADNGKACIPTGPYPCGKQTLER
Protocol: as §1, §2, §3, §4, §5, §6, §7

[2] = Observation of toxicity or adverse effects in the animal studies; type: in vivo, mice, rabbits, pigs; settings: all studies with the three species
[3] = inhibitor 39.0625 nM, 0.0390625 µM
[4] = inhibitor 78.125 nM, 0.078125 µM
[5] = inhibitor 156.25 nM, 0.15625 µM
[6] = inhibitor 40000 nM (40 µM), 40 µM

CC(C)C[C@@H]1NC(=O)[C@H](CCC(N)=O)NC(=O)[C@H](CCCNC(=N)N)NC(=O)[C@@H]2CSCCC(=O)N3CN(CN(C3)C(=O)CCSC[C@H](NC(=O)[C@@H](N)CCCNC(=N)N)C(=O)N[C@@H](Cc3ccccc3)C(=O)N[C@@H](CCCNC(=N)N)C(=O)N[C@@H](CC(C)C)C(=O)N3CCC[C@H]3C(=O)N2)C(=O)CCSC[C@@H](C(=O)N[C@@H](CCCNC(=N)N)C(N)=O)NC(=O)[C@H](CCCNC(=N)N)NC1=O [FXII618]
t1/2 of cleavage of N-terminal Arg1 by plasma proteases [1]: around 4 h

CC(C)C[C@@H]1NC(=O)[C@H](CCC(N)=O)NC(=O)[C@H](Cc2c[nH]cn2)NC(=O)[C@@H]2CSCCC(=O)N3CN(CN(C3)C(=O)CCSC[C@H](NC(=O)[C@@H](CO)NC(=O)[C@H](N)CCCNC(=N)N)C(=O)N[C@@H](Cc3ccc(F)cc3)C(=O)N[C@@H](CCCNC(=N)N)C(=O)N[C@@H](CC(C)C)C(=O)N3CCC[C@H]3C(=O)N2)C(=O)CCSC[C@@H](C(N)=O)NC(=O)C[C@H](CCCNC(=N)N)NC1=O [FXII900] (H-[dR][dS]C[Phe(4-F)]RLPCHQL[β3hR]C-NH2; linker 3-8-13 via TATA)
Ki (trypsin): 1.46 µM
remaining activity at 0.0390625 µM (trypsin; inhibitor 39.0625 nM): 99%
Residual activity of Trypsin (trypsin; [3]): 98.1138%
remaining activity at 0.078125 µM (trypsin; inhibitor 78.125 nM): 100%
Residual activity of Trypsin (trypsin; [4]): 99.9393%
remaining activity at 0.15625 µM (trypsin; inhibitor 156.25 nM): 91.6%
Residual activity of Trypsin (trypsin; [5]): 92.2203%
remaining activity at 0.3125 µM (trypsin; inhibitor 312.5 nM): 86%
Residual activity of Trypsin (trypsin; inhibitor 312.5 nM, 0.3125 µM): 88.4651%
remaining activity at 0.625 µM (trypsin; inhibitor 625 nM): 77.9%
Residual activity of Trypsin (trypsin; inhibitor 625 nM, 0.625 µM): 73.7094%
remaining activity at 1.25 µM (trypsin; inhibitor 1250 nM): 64%
Residual activity of Trypsin (trypsin; inhibitor 1250 nM, 1.25 µM): 61.5181%
remaining activity at […] (trypsin; inhibitor 2500 nM): 47.5%
Residual activity of Trypsin (trypsin; inhibitor 2500 nM, […]): 46.5602%
remaining activity at 5 µM (trypsin; inhibitor 5000 nM): 34.6%
Residual activity of Trypsin (trypsin; inhibitor 5000 nM, 5 µM): 30.2825%
remaining activity at 10 µM (trypsin; inhibitor 10000 nM): 21%
Residual activity of Trypsin (trypsin; inhibitor 10000 nM, 10 µM): 19.2935%
remaining activity at 20 µM (trypsin; inhibitor 20000 nM): 12.9%
Residual activity of Trypsin (trypsin; inhibitor 20000 nM, 20 µM): 12.2739%
remaining activity at 40 µM (trypsin; inhibitor 40000 nM (40 µM)): 9.2%
Residual activity of Trypsin (trypsin; [6]): 9.912% and 8.397%
Ki (plasma kallikrein): > 40 µM
remaining activity at 0.0390625 µM (plasma kallikrein; inhibitor 39.0625 nM): 98.1%
Residual activity of Plasma kallikrein (plasma kallikrein; [3]): 100.436%
remaining activity at 0.078125 µM (plasma kallikrein; inhibitor 78.125 nM): 98.4%
Residual activity of Plasma kallikrein (plasma kallikrein; [4]): 99.938%
remaining activity at 0.15625 µM (plasma kallikrein; inhibitor 156.25 nM): 98.9%
Residual activity of Plasma kallikrein (plasma kallikrein; [5]): 99.0018%
remaining activity at 0.3125 µM (plasma kallikrein; inhibitor 312.5 nM): 102%
Residual activity of Plasma kallikrein (plasma kallikrein; inhibitor 312.5 nM, 0.3125 µM): 98.8676%
remaining activity at 0.625 µM (plasma kallikrein; inhibitor 625 nM): 101%
Residual activity of Plasma kallikrein (plasma kallikrein; inhibitor 625 nM, 0.625 µM): 98.0454%
remaining activity at 1.25 µM (plasma kallikrein; inhibitor 1250 nM): 101%
Residual activity of Plasma kallikrein (plasma kallikrein; inhibitor 1250 nM, 1.25 µM): 97.0056%
remaining activity at […] (plasma kallikrein; inhibitor 2500 nM): 96%
Residual activity of Plasma kallikrein (plasma kallikrein; inhibitor 2500 nM, […]): 95.4747%
remaining activity at 5 µM (plasma kallikrein; inhibitor 5000 nM): 92.8%
Residual activity of Plasma kallikrein (plasma kallikrein; inhibitor 5000 nM, 5 µM): 93.0245%
remaining activity at 10 µM (plasma kallikrein; inhibitor 10000 nM): 91.9%
Residual activity of Plasma kallikrein (plasma kallikrein; inhibitor 10000 nM, 10 µM): 91.0418%
remaining activity at 20 µM (plasma kallikrein; inhibitor 20000 nM): 84.1%
Residual activity of Plasma kallikrein (plasma kallikrein; inhibitor 20000 nM, 20 µM): 81.6415%
remaining activity at 40 µM (plasma kallikrein; inhibitor 40000 nM (40 µM)): 72%
Residual activity of Plasma kallikrein (plasma kallikrein; [6]): 73.9098% and 69.1761%
Residual activity of FXa (factor Xa; [3]): 101.787%
remaining activity at 0.0390625 µM (factor Xa; inhibitor 39.0625 nM, read-out: Residual activity of FXa): 94.8%
Residual activity of FXa (factor Xa; [4]): 97.2913%
remaining activity at 0.078125 µM (factor Xa; inhibitor 78.125 nM, read-out: Residual activity of FXa): 93.4%
Residual activity of FXa (factor Xa; [5]): 100.804%
remaining activity at 0.15625 µM (factor Xa; inhibitor 156.25 nM, read-out: Residual activity of FXa): 97.6%
Residual activity of FXa (factor Xa; inhibitor 312.5 nM, 0.3125 µM): 95.4335%
remaining activity at 0.3125 µM (factor Xa; inhibitor 312.5 nM, read-out: Residual activity of FXa): 95.1%
Residual activity of FXa (factor Xa; inhibitor 625 nM, 0.625 µM): 101.673%
remaining activity at 0.625 µM (factor Xa; inhibitor 625 nM, read-out: Residual activity of FXa): 97.6%
Residual activity of FXa (factor Xa; inhibitor 1250 nM, 1.25 µM): 99.2096%
remaining activity at 1.25 µM (factor Xa; inhibitor 1250 nM, read-out: Residual activity of FXa): 99.4%
Residual activity of FXa (factor Xa; inhibitor 2500 nM, […]): 104.071%
remaining activity at […] (factor Xa; inhibitor 2500 nM, read-out: Residual activity of FXa): 98.3%
Residual activity of FXa (factor Xa; inhibitor 5000 nM, 5 µM): 101.691%
remaining activity at 5 µM (factor Xa; inhibitor 5000 nM, read-out: Residual activity of FXa): 94.7%
Residual activity of FXa (factor Xa; inhibitor 10000 nM, 10 µM): 102.146%
remaining activity at 10 µM (factor Xa; inhibitor 10000 nM, read-out: Residual activity of FXa): 99.4%
Residual activity of FXa (factor Xa; inhibitor 20000 nM, 20 µM): 104.386%
remaining activity at 20 µM (factor Xa; inhibitor 20000 nM, read-out: Residual activity of FXa): 94.7%
Residual activity of FXa (factor Xa; [6]): 96.1187% and 97.9911%
remaining activity at 40 µM (factor Xa; inhibitor 40000 nM (40 µM), read-out: Residual activity of FXa): 97.1%
Ki (factor Xa; read-out: Ki FXa): > 40 µM
signs of toxicity or other adverse effects [2]: did not observe any signs of toxicity or other adverse effects

Reference: paper PMC7403315, “Cyclic peptide FXII inhibitor provides safe anticoagulation in a thrombosis model and in artificial lungs” (Nature Communications, 2020)
